What is called IC50 is the concentration that gives 50% inhibition.

Results on 12 molecules are retold here after patent US20260070945A1, “MACROCYCLIC IMMUNOMODULATORS” (Bristol-Myers Squibb Company, priority 2022, published 2026).

Structures are written as SMILES. Where a SMILES comes first, the peptide text is derived from it. Bridges are numbered along the chain shown (N, C = ends). [ ]: non-standard residue; d: D form. The star is where a group is joined. ξ: configuration not given here. Phe(4-CONH2) = NC(=O)c1ccc(C[C@H](N)C(=O)O)cc1; Phe(4-COOH) = N[C@@H](Cc1ccc(C(=O)O)cc1)C(=O)O; Bip = N[C@@H](Cc1ccc(-c2ccccc2)cc1)C(=O)O; Phe(3-Me) = Cc1cccc(C[C@H](N)C(=O)O)c1; Val(3-OH) = CC(C)(O)[C@H](N)C(=O)O; 4Pal = N[C@@H](Cc1ccncc1)C(=O)O; Cha = N[C@@H](CC1CCCCC1)C(=O)O; Thr(3ξ) = CC(O)[C@H](N)C(=O)O; Carboxymethyl = O=C(O)C*; NMeA = CN[C@@H](C)C(=O)O; Aun = NCCCCCCCCCCC(=O)O; Dab = NCC[C@H](N)C(=O)O; AEEA = NCCOCCOCC(=O)O

One assay deals with T1, PD-1/PD-L1 interaction (PE-labeled human PD-L1-Ig binding to Jurkat cell line over-expressing human PD-1) (Homo sapiens, UniProt Q15116).
T1 construct: expressed in transfected cells; host or cells: Jurkat
T1 sequence (Q15116 25-288): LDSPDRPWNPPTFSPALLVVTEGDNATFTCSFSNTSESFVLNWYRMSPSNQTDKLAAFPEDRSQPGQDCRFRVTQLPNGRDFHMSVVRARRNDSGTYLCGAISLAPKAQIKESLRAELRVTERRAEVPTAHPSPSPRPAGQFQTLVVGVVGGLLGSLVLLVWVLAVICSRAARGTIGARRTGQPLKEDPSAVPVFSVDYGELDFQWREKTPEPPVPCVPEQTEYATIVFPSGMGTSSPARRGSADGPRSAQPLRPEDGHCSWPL
Description: Jurkat-PD-1 Cell Binding High-Content Screening Assay (CBA). The note with it: Jurkat-hPD-1 cells, PE-labeled PD-L1-Ig 20 nM final; read-out: Jurkat HPD1 PDL1 IC50. The essentials: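 High-content imaging read-out of PE-PD-L1-Ig binding (20 nM final, 1 h) to Jurkat-hPD-1 cells, after 2 h compound exposure at 37 °C in DMEM with 10% FCS. Nuclei counterstained with Hoechst 33342 after paraformaldehyde fixation.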
As to `Cc1cccc(C[C@@H]2NC(=O)[C@H](CC(=O)O)NC(=O)[C@H](Cc3ccc(OCC(=O)O)cc3)NC(=O)[C@H](C(C)O)NC(=O)CSC[C@@H](C(=O)N[C@@H](CCN)C(=O)NCCOCCOCC(=O)NCCCCCCCCCCC(=O)O)NC(=O)[C@H](CC(=O)O)NC(=O)[C@H](C(C)C)NC(=O)[C@H](CC3CCCCC3)NC(=O)[C@H](CCN)NC(=O)[C@@H](CC(C)C)NC(=O)[C@H](C)N(C)C(=O)[C@H](Cc3ccc(OCC(=O)O)cc3)NC(=O)[C@H](Cc3ccc(-c4ccccc4)cc3)NC(=O)[C@H](Cc3ccc(C(=O)O)cc3)NC2=O)c1` (stereo partly drawn) [Example 2479] ({CH2CO}-[Thr(3ξ)]Y(Carboxymethyl)D[Phe(3-Me)][Phe(4-COOH)][Bip]Y(Carboxymethyl)[NMeA][dL][Dab][Cha]VDC[Dab][AEEA][Aun]-OH; thioether N-14), the IC50 is 19.6 nM.
As for `Cc1cccc(C[C@@H]2NC(=O)[C@H](CC(=O)O)NC(=O)[C@H](Cc3ccc(C(N)=O)cc3)NC(=O)[C@H](C(C)O)NC(=O)CSC[C@@H](C(=O)N[C@@H](CCN)C(=O)NCCOCCOCC(=O)NCCCCCCCCCCC(=O)O)NC(=O)[C@H](CCC(=O)O)NC(=O)[C@H](C(C)C)NC(=O)[C@H](CC3CCCCC3)NC(=O)[C@H](CCN)NC(=O)[C@@H](CC(C)C)NC(=O)[C@H](C)N(C)C(=O)[C@H](Cc3ccc(OCC(=O)O)cc3)NC(=O)[C@H](Cc3ccc(-c4ccccc4)cc3)NC(=O)[C@H](Cc3ccc(C(=O)O)cc3)NC2=O)c1` (stereo partly drawn) [Example 2480] ({CH2CO}-[Thr(3ξ)][Phe(4-CONH2)]D[Phe(3-Me)][Phe(4-COOH)][Bip]Y(Carboxymethyl)[NMeA][dL][Dab][Cha]VEC[Dab][AEEA][Aun]-OH; thioether N-14), the IC50 is 17.4 nM.
As for `Cc1cccc(C[C@@H]2NC(=O)[C@H](CC(=O)O)NC(=O)[C@H](Cc3ccc(OCC(=O)O)cc3)NC(=O)[C@H](C(C)O)NC(=O)CSC[C@@H](C(=O)N[C@@H](CCN)C(=O)NCCOCCOCC(=O)NCCCCCCCCCCC(=O)O)NC(=O)[C@H](CCC(=O)O)NC(=O)[C@H](C(C)C)NC(=O)[C@H](CC3CCCCC3)NC(=O)[C@H](CCN)NC(=O)[C@@H](CC(C)C)NC(=O)[C@H](C)N(C)C(=O)[C@H](Cc3ccc(OCC(=O)O)cc3)NC(=O)[C@H](Cc3ccc(-c4ccccc4)cc3)NC(=O)[C@H](Cc3ccc(C(=O)O)cc3)NC2=O)c1` (stereo partly drawn) [Example 2481] ({CH2CO}-[Thr(3ξ)]Y(Carboxymethyl)D[Phe(3-Me)][Phe(4-COOH)][Bip]Y(Carboxymethyl)[NMeA][dL][Dab][Cha]VEC[Dab][AEEA][Aun]-OH; thioether N-14), the IC50 is 14.6 nM.
Turning to `Cc1cccc(C[C@@H]2NC(=O)[C@H](CC(=O)O)NC(=O)[C@H](Cc3ccc(OCC(=O)O)cc3)NC(=O)[C@H](C(C)O)NC(=O)CSC[C@@H](C(=O)N[C@@H](CCN)C(=O)NCCOCCOCC(=O)NCCOCCOCC(=O)NCCCCCCCCCCC(=O)O)NC(=O)[C@H](CCC(=O)O)NC(=O)[C@H](C(C)C)NC(=O)[C@H](CC3CCCCC3)NC(=O)[C@H](CCN)NC(=O)[C@@H](CC(C)C)NC(=O)[C@H](C)N(C)C(=O)[C@H](Cc3ccc(OCC(=O)O)cc3)NC(=O)[C@H](Cc3ccc(-c4ccccc4)cc3)NC(=O)[C@H](Cc3ccc(C(=O)O)cc3)NC2=O)c1` (stereo partly drawn) [Example 2482] ({CH2CO}-[Thr(3ξ)]Y(Carboxymethyl)D[Phe(3-Me)][Phe(4-COOH)][Bip]Y(Carboxymethyl)[NMeA][dL][Dab][Cha]VEC[Dab][AEEA][AEEA][Aun]-OH; thioether N-14), the IC50 was 20.7 nM.
Take `Cc1cccc(C[C@@H]2NC(=O)[C@H](CC(=O)O)NC(=O)[C@H](Cc3ccc(OCC(=O)O)cc3)NC(=O)[C@H](CCN)NC(=O)CSC[C@@H](C(=O)N[C@@H](CCN)C(=O)NCCCCCCCCCCC(=O)O)NC(=O)[C@H](Cc3c[nH]cn3)NC(=O)[C@H](C(C)(C)O)NC(=O)[C@H](CC3CCCCC3)NC(=O)[C@H](CCN)NC(=O)[C@@H](CC(C)C)NC(=O)[C@H](C)N(C)C(=O)[C@H](Cc3ccc(OCC(=O)O)cc3)NC(=O)[C@H](Cc3ccc(-c4ccccc4)cc3)NC(=O)[C@H](Cc3ccc(OCC(=O)O)cc3)NC2=O)c1` [Example 2483] ({CH2CO}-[Dab]Y(Carboxymethyl)D[Phe(3-Me)]Y(Carboxymethyl)[Bip]Y(Carboxymethyl)[NMeA][dL][Dab][Cha][Val(3-OH)]HC[Dab][Aun]-OH; thioether N-14): the concentration for half-maximal inhibition (IC50) worked out at 12.6 nM.

Staying with this assay, now noted: PE-labeled PD-L1-Ig 20 nM final, Jurkat-hPD-1 cells; read-out: Jurkat HPD1 PDL1 IC50.
For `Cc1cccc(C[C@@H]2NC(=O)[C@H](CC(=O)O)NC(=O)[C@H](Cc3ccc(OCC(=O)O)cc3)NC(=O)[C@H](Cc3ccncc3)NC(=O)CSC[C@@H](C(=O)N[C@@H](CCN)C(=O)NCCOCCOCC(=O)NCCCCCCCCCCC(=O)O)NC(=O)[C@H](CCC(=O)O)NC(=O)[C@H](C(C)(C)O)NC(=O)[C@H](CC3CCCCC3)NC(=O)[C@H](CCN)NC(=O)[C@@H](CC(C)C)NC(=O)[C@H](C)N(C)C(=O)[C@H](Cc3ccc(C(=O)O)cc3)NC(=O)[C@H](Cc3ccc(-c4ccccc4)cc3)NC(=O)[C@H](Cc3ccc(C(=O)O)cc3)NC2=O)c1` [Example 2485] ({CH2CO}-[4Pal]Y(Carboxymethyl)D[Phe(3-Me)][Phe(4-COOH)][Bip][Phe(4-COOH)][NMeA][dL][Dab][Cha][Val(3-OH)]EC[Dab][AEEA][Aun]-OH; thioether N-14), the IC50 came to 11.5 nM.
`Cc1cccc(C[C@@H]2NC(=O)[C@H](CC(=O)O)NC(=O)[C@H](Cc3ccc(OCC(=O)O)cc3)NC(=O)[C@H](Cc3ccncc3)NC(=O)CSC[C@@H](C(=O)NCCOCCOCC(=O)NCCOCCOCC(=O)NCCCCCCCCCCC(=O)O)NC(=O)[C@H](CCC(=O)O)NC(=O)[C@H](C(C)(C)O)NC(=O)[C@H](CC3CCCCC3)NC(=O)[C@H](CCN)NC(=O)[C@@H](CC(C)C)NC(=O)[C@H](C)N(C)C(=O)[C@H](Cc3ccc(C(=O)O)cc3)NC(=O)[C@H](Cc3ccc(-c4ccccc4)cc3)NC(=O)[C@H](Cc3ccc(C(=O)O)cc3)NC2=O)c1` [Example 2486] ({CH2CO}-[4Pal]Y(Carboxymethyl)D[Phe(3-Me)][Phe(4-COOH)][Bip][Phe(4-COOH)][NMeA][dL][Dab][Cha][Val(3-OH)]EC[AEEA][AEEA][Aun]-OH; thioether N-14): the IC50 was 305 nM.
Consider `CC(=O)NCCCC[C@@H]1NC(=O)[C@H](C(C)C)NC(=O)[C@H](CC2CCCCC2)NC(=O)[C@H](CCN)NC(=O)[C@@H](CC(C)C)NC(=O)[C@H](C)N(C)C(=O)[C@H](CCC(N)=O)NC(=O)[C@H](Cc2ccc(-c3ccccc3)cc2)NC(=O)[C@H](C(C)C)NC(=O)[C@H](Cc2c[nH]c3ccccc23)NC(=O)[C@H](CC(=O)O)NC(=O)[C@H](Cc2ccc(OCC(=O)O)cc2)NC(=O)[C@H](Cc2ccncc2)NC(=O)CSC[C@@H](C(=O)N[C@@H](CCN)C(=O)NCCOCCOCC(=O)NCCCCCCCCCCC(=O)O)NC1=O` [Example 2491] ({CH2CO}-[4Pal]Y(Carboxymethyl)DWV[Bip]Q[NMeA][dL][Dab][Cha]VK(Ac)C[Dab][AEEA][Aun]-OH; thioether N-14), for which the IC50 came out at 19.1 nM.
As for `CC(C)C[C@H]1NC(=O)[C@H](C)N(C)C(=O)[C@H](CCC(N)=O)NC(=O)[C@H](Cc2ccc(-c3ccccc3)cc2)NC(=O)[C@H](C(C)C)NC(=O)[C@H](Cc2c[nH]c3ccccc23)NC(=O)[C@H](CC(=O)O)NC(=O)[C@H](Cc2ccc(OCC(=O)O)cc2)NC(=O)[C@H](Cc2ccncc2)NC(=O)CSC[C@@H](C(=O)N[C@@H](CCN)C(=O)NCCOCCOCC(=O)NCCCCCCCCCCC(=O)O)NC(=O)[C@H](CCC(=O)O)NC(=O)[C@H](C(C)C)NC(=O)[C@H](CC2CCCCC2)NC(=O)[C@H](CCN)NC1=O` [Example 2492] ({CH2CO}-[4Pal]Y(Carboxymethyl)DWV[Bip]Q[NMeA][dL][Dab][Cha]VEC[Dab][AEEA][Aun]-OH; thioether N-14), the IC50 was determined as 31.1 nM.
With `CC(=O)NCCCC[C@@H]1NC(=O)[C@H](C(C)C)NC(=O)[C@H](CC2CCCCC2)NC(=O)[C@H](CCN)NC(=O)[C@@H](CC(C)C)NC(=O)[C@H](C)N(C)C(=O)[C@H](CCC(N)=O)NC(=O)[C@H](Cc2ccc(-c3ccccc3)cc2)NC(=O)[C@H](Cc2ccc(OCC(=O)O)cc2)NC(=O)[C@H](Cc2cccc(C)c2)NC(=O)[C@H](CC(=O)O)NC(=O)[C@H](Cc2ccc(OCC(=O)O)cc2)NC(=O)[C@H](Cc2ccncc2)NC(=O)CSC[C@@H](C(=O)N[C@@H](CCN)C(=O)NCCOCCOCC(=O)NCCCCCCCCCCC(=O)O)NC1=O` [Example 2493] ({CH2CO}-[4Pal]Y(Carboxymethyl)D[Phe(3-Me)]Y(Carboxymethyl)[Bip]Q[NMeA][dL][Dab][Cha]VK(Ac)C[Dab][AEEA][Aun]-OH; thioether N-14), the IC50 worked out at 4.8 nM.
Take `CC(C)C[C@H]1NC(=O)[C@H](C)N(C)C(=O)[C@H](CCC(N)=O)NC(=O)[C@H](Cc2ccc(-c3ccccc3)cc2)NC(=O)[C@H](C(C)C)NC(=O)[C@H](Cc2c[nH]c3ccccc23)NC(=O)[C@H](CC(=O)O)NC(=O)[C@H](Cc2ccc(OCC(=O)O)cc2)NC(=O)[C@H](Cc2ccncc2)NC(=O)CSC[C@@H](C(=O)N[C@@H](CCN)C(=O)NCCOCCOCC(=O)NCCCCCCCCCCC(=O)O)NC(=O)[C@H](CCC(=O)O)NC(=O)[C@H](C(C)(C)O)NC(=O)[C@H](CC2CCCCC2)NC(=O)[C@H](CCN)NC1=O` [Example 2494] ({CH2CO}-[4Pal]Y(Carboxymethyl)DWV[Bip]Q[NMeA][dL][Dab][Cha][Val(3-OH)]EC[Dab][AEEA][Aun]-OH; thioether N-14): the IC50 was 9.2 nM.
The same measure, in the same setting: the value for `Cc1cccc(C[C@@H]2NC(=O)[C@H](CC(=O)O)NC(=O)[C@H](Cc3ccc(C(=O)O)cc3)NC(=O)[C@H](Cc3ccncc3)NC(=O)CSC[C@@H](C(=O)N[C@@H](CCN)C(=O)NCCOCCOCC(=O)NCCOCCOCC(=O)NCCCCCCCCCCC(=O)O)NC(=O)[C@H](CCC(=O)O)NC(=O)[C@H](C(C)(C)O)NC(=O)[C@H](CC3CCCCC3)NC(=O)[C@H](CCN)NC(=O)[C@@H](CC(C)C)NC(=O)[C@H](C)N(C)C(=O)[C@H](Cc3ccc(C(=O)O)cc3)NC(=O)[C@H](Cc3ccc(-c4ccccc4)cc3)NC(=O)[C@H](Cc3ccc(C(=O)O)cc3)NC2=O)c1` [Example 2495] ({CH2CO}-[4Pal][Phe(4-COOH)]D[Phe(3-Me)][Phe(4-COOH)][Bip][Phe(4-COOH)][NMeA][dL][Dab][Cha][Val(3-OH)]EC[Dab][AEEA][AEEA][Aun]-OH; thioether N-14) was 108 nM.
